Activity calls are given as the source filed them. The rule behind the calls is not given here.
Tests used:
[1] = target: T1, G-protein coupled receptor 55 (Homo sapiens, UniProt Q9Y2T6); test: Antagonist activity at recombinant human GPR55 expressed in HEK293 cells assessed as LPI mediated receptor activation by measuring LPI Emax at 1 uM after 5 mins by xCELLigence assay (reference value: 99 to 104%); assay type: cell-based
[2] = target: T2, Cannabinoid receptor 2 (Homo sapiens, UniProt P34972); test: Displacement of [3H]CP55940 from human CB2 receptor expressed in HEK293 EBNA cells at 40 uM after 90 mins by liquid scintillation spectrophotometer; assay type: cell-based
[3] = tested on: HEK293; test: Effect on non-transfected HEK293 cells at 1 nM to 10 uM after 5 mins by xCELLigence assay; assay type: functional, cell-based; settings: Homo sapiens
[4] = target: Cannabinoid receptor 1 (Homo sapiens, UniProt P21554); test: Displacement of [3H]CP55940 from human CB1 receptor expressed in HEK293 EBNA cells after 90 mins by liquid scintillation spectrophotometer; assay type: cell-based
[5] = target: T2, Cannabinoid receptor 2; test: Displacement of [3H]CP55940 from human CB2 receptor expressed in HEK293 EBNA cells after 90 mins by liquid scintillation spectrophotometer; assay type: cell-based
[6] = target: T1, G-protein coupled receptor 55; test: Partial agonist activity at recombinant human GPR55 expressed in HEK293 cells at 1 uM after 5 mins by xCELLigence assay relative to LPI; assay type: cell-based
[7] = target: T1, G-protein coupled receptor 55; test: Agonist activity at recombinant human GPR55 expressed in HEK293 cells after 5 mins by xCELLigence assay; assay type: cell-based
[8] = target: T1, G-protein coupled receptor 55; test: Agonist activity at recombinant human GPR55 expressed in HEK293 cells at 1 uM after 5 mins by xCELLigence assay relative to LPI; assay type: cell-based
[9] = target: T1, G-protein coupled receptor 55; test: Partial agonist activity at recombinant human GPR55 expressed in HEK293 cells after 5 mins by xCELLigence assay; assay type: cell-based
[10] = target: T2, Cannabinoid receptor 2; test: Agonist activity at human CB2 receptor expressed in CHO cells after 30 mins by [35S]-GTPgammaS binding assay relative to control
[11] = tested on: HEK293; test: Effect on non-transfected HEK293 cells at 10 uM after 5 mins by xCELLigence assay; assay type: functional, cell-based; settings: Homo sapiens

T1 sequence (Q9Y2T6 whole entry): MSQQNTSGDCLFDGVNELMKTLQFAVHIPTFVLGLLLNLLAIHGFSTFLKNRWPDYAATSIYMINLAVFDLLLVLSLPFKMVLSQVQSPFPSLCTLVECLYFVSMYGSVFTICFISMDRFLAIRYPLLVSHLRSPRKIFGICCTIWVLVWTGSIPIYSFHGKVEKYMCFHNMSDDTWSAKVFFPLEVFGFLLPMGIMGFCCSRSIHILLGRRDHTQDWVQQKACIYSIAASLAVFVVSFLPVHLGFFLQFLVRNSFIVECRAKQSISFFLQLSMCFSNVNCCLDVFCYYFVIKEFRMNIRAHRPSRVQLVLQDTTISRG
Sequence of Cannabinoid receptor 1 (P21554 whole entry): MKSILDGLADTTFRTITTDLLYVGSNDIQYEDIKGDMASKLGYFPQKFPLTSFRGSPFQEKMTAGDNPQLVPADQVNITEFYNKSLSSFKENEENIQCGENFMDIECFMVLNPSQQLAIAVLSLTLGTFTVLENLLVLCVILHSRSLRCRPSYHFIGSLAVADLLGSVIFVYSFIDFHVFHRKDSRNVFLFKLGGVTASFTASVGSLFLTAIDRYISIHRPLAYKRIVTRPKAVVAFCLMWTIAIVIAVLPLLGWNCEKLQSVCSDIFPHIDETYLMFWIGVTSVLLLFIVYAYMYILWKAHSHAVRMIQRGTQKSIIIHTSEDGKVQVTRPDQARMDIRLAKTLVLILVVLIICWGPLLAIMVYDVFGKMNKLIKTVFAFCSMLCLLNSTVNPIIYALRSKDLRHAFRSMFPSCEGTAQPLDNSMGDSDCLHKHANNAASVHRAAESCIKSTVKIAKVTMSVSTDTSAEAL
T2 sequence (P34972 whole entry): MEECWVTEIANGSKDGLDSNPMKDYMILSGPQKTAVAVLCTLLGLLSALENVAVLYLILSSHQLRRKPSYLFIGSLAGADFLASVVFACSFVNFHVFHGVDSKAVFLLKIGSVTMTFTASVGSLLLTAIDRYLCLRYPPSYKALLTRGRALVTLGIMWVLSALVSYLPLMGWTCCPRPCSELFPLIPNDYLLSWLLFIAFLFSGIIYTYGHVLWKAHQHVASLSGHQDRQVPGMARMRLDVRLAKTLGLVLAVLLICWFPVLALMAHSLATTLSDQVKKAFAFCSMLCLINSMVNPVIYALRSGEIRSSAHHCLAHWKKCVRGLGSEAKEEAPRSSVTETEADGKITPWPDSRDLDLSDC

| SMILES | inhibition [2] [%] | EC50 [10] [µM] | EC50 [7] [µM] | Emax [1] [%] | Activity [3] | Ki [4] [µM] | Ki [5] [µM] | Emax [6] [%] | Activity [7] | Emax [8] [%] | EC50 [9] [µM] | Activity [11] |
| --- | --- | --- | --- | --- | --- | --- | --- | --- | --- | --- | --- | --- |
| COc1ccc2c(c1)OC(C)(C)c1cn(CNC(=O)CN3CCN(c4cccc(C)c4C)CC3)nc1-2 |  |  |  | 102 | inactive | > 40 | > 40 |  | inactive | < 25 |  |  |
| COc1ccc2c(c1)OC(C)(C)c1cn(CCN3CCN(C(=O)C4CCCO4)CC3)nc1-2 (stereo not drawn) | 70 |  |  | 102 | inactive | > 40 | 1.07 | 51 |  |  | 0.0004 |  |
| COc1ccc2c(c1)OC(C)(C)c1cnn(CCN3CCN(C(=O)c4cccs4)CC3)c1-2 |  |  |  | 99 | inactive | > 40 |  |  |  | < 25 |  |  |
| COc1ccc2c(c1)OC(C)(C)c1cnn(CCN3CCN(C(=O)c4ccco4)CC3)c1-2 |  |  |  | 97 | inactive | > 40 |  |  |  | < 25 |  |  |
| COc1ccc2c(c1)OC(C)(C)c1cnn(CNC(=O)CN3CCN(c4ccccc4)CC3)c1-2 | 70 |  |  | 97 | inactive | > 40 | 4.92 |  | inactive | < 25 |  |  |
| COc1ccc2c(c1)OC(C)(C)c1cn(CCN3CCN(C(=O)c4ccccc4)CC3)nc1-2 | 70 |  |  | 105 | inactive | > 40 | 3.6 | 51 |  |  | 0.0006 |  |
| COc1ccc2c(c1)OC(C)(C)c1cnn(CCN3CCN(C(=O)c4ccccc4)CC3)c1-2 |  |  |  |  |  | > 40 |  |  |  |  |  |  |
| COc1ccc2c(c1)OC(C)(C)c1cn(CNC(=O)CN3CCN(c4ccccc4OC)CC3)nc1-2 |  |  |  | 90 | inactive | > 40 | > 40 | 51 |  |  | 0.00636 |  |
| COc1ccc2c(c1)OC(C)(C)c1cnn(CNC(=O)CN3CCN(c4cccc(C)c4C)CC3)c1-2 |  |  |  |  |  | > 40 | > 40 |  | inactive |  |  |  |
| COc1ccc2c(c1)OC(C)(C)c1cn(CCN3CCN(C(=O)COc4ccccc4)CC3)nc1-2 |  |  |  | 100 | inactive | > 40 | > 40 | 52 |  |  |  |  |
| COc1ccc(N2CCN(CC(=O)NCn3ncc4c3-c3ccc(OC)cc3OC4(C)C)CC2)cc1 |  |  |  | 80 | inactive | > 40 | > 40 |  | inactive | < 25 |  |  |
| COc1ccc2c(c1)OC(C)(C)c1cnn(CNC(=O)CN3CCN(c4ccccc4OC)CC3)c1-2 |  |  |  |  |  | > 40 | > 40 |  | inactive |  |  |  |

Continued, in another order:

| inhibition [2] [%] | EC50 [10] [µM] | EC50 [7] [µM] | SMILES | Emax [1] [%] | Activity [3] | Ki [4] [µM] | Ki [5] [µM] | Emax [6] [%] | Activity [7] | Emax [8] [%] | EC50 [9] [µM] | Activity [11] |
| --- | --- | --- | --- | --- | --- | --- | --- | --- | --- | --- | --- | --- |
| 70 |  |  | COc1ccc2c(c1)OC(C)(C)c1cn(CCN3CCN(C(=O)c4ccco4)CC3)nc1-2 | 106 | inactive | > 40 | 0.698 | 43 |  |  |  |  |
| 70 | 0.392 |  | COc1ccc2c(c1)OC(C)(C)c1cn(CCN3CCN(C(=O)c4cccs4)CC3)nc1-2 | 96 | inactive | > 40 | 0.0154 | 45 |  |  |  |  |
|  |  | 0.00282 | CCCCCCCCCCCCCCCCCC(=O)OC[C@@H](O)COP(=O)(O)O[C@@H]1[C@H](O)[C@H](O)[C@@H](O)[C@H](O)[C@H]1O |  |  |  |  |  |  |  |  | Active |
| 70 |  |  | COc1ccc2c(c1)OC(C)(C)c1cn(CCN3CCN(C(=O)C4CCCCC4)CC3)nc1-2 | 99 | inactive | > 40 | 0.523 | 47 |  |  |  |  |
| 70 |  |  | COc1ccc2c(c1)OC(C)(C)c1cn(CCN3CCN(C(=O)C(C)(C)C)CC3)nc1-2 | 100 | inactive | > 40 | 6.39 | 49 |  |  |  |  |
| 70 |  |  | COc1ccc2c(c1)OC(C)(C)c1cn(CNC(=O)CN3CCN(c4ccccc4)CC3)nc1-2 | 94 | inactive | > 40 | 1.58 |  | inactive | < 25 |  |  |

From ChEMBL document CHEMBL3779839, “Identification of Novel GPR55 Modulators Using Cell-Impedance-Based Label-Free Technology” (J Med Chem, 2016)
